Measurements as given in patent US10865238B1, “Complement factor H antibodies” (Duke University, priority 2017, dated 2020).

Key:
[1] = test system: H460 cells; assay: Calreticulin translocation to plasma membrane, H460; type: cell-based, human; conditions: H460, NHS, compared to negative controls
Method: (§1) H460 or A549 cells were treated for 2.5 hr with 1, medium; 2, NHS and CFH mAb (200 μg/ml); 3, NHS and IgG (200 μg/ml); or 4, NHS and Doxorubicin (25 μM).
(§2) In order to see if lung tumor cells undergoing CFH mAb-induced CDC send an ICD signal, human lung tumor cell lines (H460 and A549) were incubated in medium containing complement from the addition of NHS, and treated with CFH mAb, control antibody, or the known ICD inducer doxorubicin (Kepp et al. Oncoimmunology 2014; 3:e955691; Krysko et al. Nat Rev Cancer 2012; 12:860-75.). […] Total calreticulin in whole cell lysates was the same under all conditions.

[2] = test system: A549 cells; assay: Calreticulin translocation to plasma membrane, A549; type: cell-based, human; conditions: A549, NHS, compared to negative controls
Method: as §1, §2

[3] = target: T1, reduced Complement Factor H (CFH) (human, UniProt P08603 19-1231, disulfide bonds reduced with TCEP); assay: western blot (immunoblot) on native and TCEP-reduced CFH
T1 construct: also called reduced CFH; CFH treated with TCEP
T1 sequence (P08603 19-1231 limits assumed): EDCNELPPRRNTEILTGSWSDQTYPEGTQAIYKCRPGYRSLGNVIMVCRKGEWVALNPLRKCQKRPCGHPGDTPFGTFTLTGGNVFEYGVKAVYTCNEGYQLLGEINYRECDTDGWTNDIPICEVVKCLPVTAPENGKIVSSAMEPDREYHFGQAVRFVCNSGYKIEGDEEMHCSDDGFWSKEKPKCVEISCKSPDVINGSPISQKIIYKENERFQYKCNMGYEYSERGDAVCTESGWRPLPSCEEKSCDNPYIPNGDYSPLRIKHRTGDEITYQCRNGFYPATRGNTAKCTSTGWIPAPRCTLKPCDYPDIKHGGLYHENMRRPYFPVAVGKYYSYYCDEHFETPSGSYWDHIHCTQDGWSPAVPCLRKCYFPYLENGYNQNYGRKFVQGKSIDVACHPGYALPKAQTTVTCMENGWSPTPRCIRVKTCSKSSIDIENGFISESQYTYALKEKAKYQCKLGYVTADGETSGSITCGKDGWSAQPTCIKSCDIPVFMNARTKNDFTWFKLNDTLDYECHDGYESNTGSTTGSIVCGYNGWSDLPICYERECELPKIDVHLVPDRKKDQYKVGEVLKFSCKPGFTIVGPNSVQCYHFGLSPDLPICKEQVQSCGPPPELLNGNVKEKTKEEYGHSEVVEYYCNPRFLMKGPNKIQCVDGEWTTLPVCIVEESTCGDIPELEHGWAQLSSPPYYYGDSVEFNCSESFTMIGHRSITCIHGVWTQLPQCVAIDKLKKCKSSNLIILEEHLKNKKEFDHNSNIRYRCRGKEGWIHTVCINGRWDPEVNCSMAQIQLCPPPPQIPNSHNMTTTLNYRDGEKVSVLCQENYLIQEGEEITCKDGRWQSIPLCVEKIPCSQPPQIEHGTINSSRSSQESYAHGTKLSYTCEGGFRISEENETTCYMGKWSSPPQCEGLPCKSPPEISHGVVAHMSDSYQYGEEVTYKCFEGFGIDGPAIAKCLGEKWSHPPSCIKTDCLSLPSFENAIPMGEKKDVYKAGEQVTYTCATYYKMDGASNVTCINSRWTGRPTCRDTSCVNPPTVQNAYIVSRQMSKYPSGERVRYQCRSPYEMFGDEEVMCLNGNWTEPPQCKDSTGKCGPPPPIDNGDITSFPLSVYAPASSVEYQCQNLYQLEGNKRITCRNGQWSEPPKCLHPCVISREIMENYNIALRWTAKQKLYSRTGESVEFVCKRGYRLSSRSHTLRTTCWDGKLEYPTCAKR
Method: Equimolar amounts of CFH and SCR19-20 proteins (~150 kDa and ~15 kDa, respectively) were treated with Tris-HCl (oxidized) or TCEP (reduced) prior to electrophoresis. The proteins were transferred to PVDF, and the membranes were placed into a "Surf-Blot" apparatus for immunoblot analysis. […] Binding was visualized with an antihuman IgG-HRP conjugate and chemiluminescent substrate, exposing the entire blot to one piece of film.

COc1cccc2c1C(=O)c1c(O)c3c(c(O)c1C2=O)C[C@@](O)(C(=O)CO)C[C@@H]3O[C@H]1C[C@H](N)[C@H](O)[C@H](C)O1 [doxorubicin, reference compound]
plasma membrane calreticulin [1]: increases in plasma membrane calreticulin | plasma membrane calreticulin [2]: increases in plasma membrane calreticulin

B1: Ab7955 (antibody, V domains shown)
VH: LVESGGGVVRPGRSLRLSCVASGFTFNAYGMHWVRQGPGKGLEWLAVISYEGKTVYYADSVKDRFTISRDNSRNTVSLHLNNLRGEDTAVYYCAKGSASAAVLQHWGQGTLVSVTS
VL: MTQSPGSLAVSLGSRATINCKSSRSLLYRSNNKNYLAWYQQKPGQSPRLLIYWASSRESGVPDRFSGGGSGTSFTLTISSLQAEDVAVYYCQQYFNPPWTFGQGTKVEIK
notes: Recombinant human mAb; also called CFH mAb 7955
binding result [3]: binds
